Converted amounts (≈) assume the structure as drawn.
Columns and labels:
[1] = system: C. albicans 53264 biofilms; test: Biofilm XTT metabolic assay; format: cell-based; conditions: pre-adhesion, 2 h adherent and 24 h mature biofilms
Procedure: (§1) The antifungal activities of RTD-1, caspofungin and fluconazole were evaluated against biofilms of C. albicans SC5314 and 53264 essentially as described by Pierce et al.[67]. Briefly, biofilms established for 0 h (preadhesion), 2 h (adherent), or 24 h (mature) were developed by adding 1 × 10^5 yeast cells in 50 or 100 µl of RPMI-1640 to wells of flat-bottom 96-well microtiter plates (Costar, Corning, NY). Fifty or 100 µl aliquots of serial 2-fold dilutions of peptide or antifungal drugs were added to wells in triplicate and incubated for 24 h or 48 h prior to analysis of biofilm metabolic activities. Concentrations of reagents used were as follows: RTD-1 - 0.09 – 100 µg/ml (0.05–48 µM), Fluco – 1–250 µg/ml (3.3–816.3 µM); Caspo- 0.003–8 µg/ml ([…]–7.3 µM). Analysis of the effect of each agent on Candida biofilms was performed using an XTT colorimetric assay. One hundred µl of 1 µM XTT/menadione added to each biofilm well, plates were incubated in the dark for 3 h at 37 °C, and 80 µl of supernatant was transferred to a new 96-well flat-bottom microtiter plate (Greiner Bio-one, Monroe, NC). Absorbance was measured at 490 nm on a SpectraMax® i3x (Molecular Devices). Readings were plotted as average of triplicates after subtracting the corresponding values for negative controls (XTT/menadione only).

[2] = system: C. albicans SC5314 biofilms; test: Biofilm XTT metabolic assay; format: cell-based; conditions: pre-adhesion conditions
Procedure: as §1

[3] = system: C. albicans SC5314; test: Systemic candidiasis model, survival and renal fungal burden; format: in vivo, BALB/c mice
Procedure: The efficacy of RTD-1 in vivo was evaluated in an established model of systemic candidiasis using C. albicans SC5314. Both immunocompetent and immunosuppressed mouse models are employed in preclinical studies of systemic candidiasis. Since many of our preliminary studies employed the […] model, we conducted efficacy studies with RTD-1 and reference antifungal drugs in immunocompetent BALB/c mice. Mice were challenged i.v. with 3 × 10^5 blastospores at T = 0, which rapidly produces disseminated candidiasis and colonizes major organs in a manner resembling systemic candidiasis in humans. […] We analyzed the effect of a single 5 mg/kg dose of RTD-1 administered i.v., s.c., or i.p. immediately after i.v. fungal challenge, with i.p. saline as vehicle control. Fluco and Caspo, administered i.p. at 5 mg/kg, were used as drug comparators. […] In subsequent studies, antifungal agents were administered i.p. to circumvent potentially confounding effects resulting from treatment by the same route as infection, which was i.v. in all experiments.
(§2) BALB/c female mice (7–8 weeks old) and CD-1 female mice (4–5 weeks old) were obtained from Charles River Laboratories and allocated randomly in groups of five mice per cage. Mice were maintained on a 12 h light/dark cycle in thermostatically controlled rooms for the duration of the experiment. C. albicans inocula were prepared fresh each day from saturated cultures grown overnight in YPD medium, washed in sterile PBS, and fungi were counted with hemocytometer. Stock suspensions were prepared in sterile PBS. BALB/c mice were challenged with 2 × 10^6 CFU/ml wild-type C. albicans reference strain SC5314, while CD-1 mice were challenged with 1.8 × 10^7 CFU/ml (0.15–0.2 ml) C. albicans clinical isolate 53264 by i.v. injection into the lateral caudal tail vein using a 28 G 1/2 inch needle. Animals were treated by i.v., s.c., or i.p. routes immediately post-infection (p.i.) or 24 h p.i. with sterile saline (control), RTD-1, fluconazole, or caspofungin administered at the concentrations indicated in a 0.200 ml. Mice were weighted and monitored daily for general clinical condition. Mice were euthanized as approved by the USC IACUC and in compliance with the National Institutes of Health Guide for the Care and Use of Laboratory Animals. All experiments were repeated at least three times.
(§3) To assess systemic fungal clearance, renal fungal burden was determined. Mice were euthanized at times indicated, and both kidneys were weighed, homogenized in 5 ml of sterile PBS, and serial dilutions of homogenate were plated on YPD agar plates and incubated at 30 °C for 2 days. CFU per gram of kidney was calculated.

[4] = system: C. albicans 53264; test: Systemic MDR candidiasis model, survival and renal fungal burden; format: in vivo, CD-1 mice; conditions: 5 mg/kg i.p. once per day for 7 days beginning 24 h p.i.; 1.8 × 10^7 blastospores i.v.; 40 days
Procedure: (as in Fig. 3d). CD-1, rather than BALB/c mice were used in the C. albicans 53264 challenge studies as this mouse strain was employed by Wiederhold et al. in the assessment of caspofungin efficacy against this pathogen. […] Fungal burdens were determined in kidneys of long term survivors in the RTD-1, Caspo, and Fluco-treated cohorts (euthanized at day 40) and from moribund mice from the survival study in Fig. 7a.
as §2, §3

[5] = system: C. albicans SC5314; test: MIC/MFC, broth microdilution (modified CLSI M27-A2); format: cell-based; conditions: Candida albicans
Procedure: (§4) C. albicans strains were tested against RTD-1, fluconazole, and caspofungin in microdilution broth in accordance with Clinical and Laboratory Standards Institute (CLSI) document M27-A2 with the exception that 25 mM MOPS was used in place of 165 mM MOPS, as described previously. Overnight cultures were harvested by centrifugation, washed twice with Ca^2+ and Mg^2+-free PBS, pH 7.2, and suspended in test medium (RPMI 1640 medium, 25 mM MOPS, 2 mM L-glutamine) at 10^4 CFU/ml[62]. Incubations were conducted in flat bottom, 96-well microtiter plates (Greiner bio-one, Monroe, NC) containing 0.2 ml test medium per well. Duplicate 0.1 ml aliquots of serial two-fold dilutions of peptides and antifungal drugs were dispensed into wells, each of which was inoculated with 0.1 ml of fungal cell suspension containing 1 × 10^3 CFU. Plates were incubated at 30 °C for 48 hours after which A600 was determined using a SpectraMax M5e plate reader.
(§5) Minimal fungicidal concentration (MFC) was determined by plating, on YPD plates, 10 µl from wells in MIC assay without cell growth and the first well with measurable turbidity as described[63]–[66] and corresponding aliquots from the no-agent controls. […] MFC is reported as the lowest concentration of peptide or antifungal drug that killed ≥99% of the input organisms.
(§6) MICs and MFCs of RTD-1 were also performed in the presence of 50% mouse serum. Serum was prepared from blood collected by cardiac puncture from BALB/c mice. After coagulation at room temperature, serum was collected by centrifugation (200 g for 10 min followed by 23,000 g for 15 min), and diluted with an equal volume of yeast inoculum in MIC test medium described above.

[6] = system: C. albicans 43001; test: as above; format: cell-based
Procedure: as §4, §5, §6

[7] = system: C. albicans 53264; test: as above; format: cell-based
Procedure: as §4, §5, §6

[8] = system: clinical isolate of C. albicans; conditions: 10 mg/kg i.p. daily beginning 24 h after infection; cited from earlier work
Excerpt: Despite the remarkable in vitro properties of HDPs, efforts to develop them as therapeutics have met with limited success. Barriers encountered include lack of peptide stability, toxicity, adverse proinflammatory properties, and poor bioavailability.

**Q.** For `OC(Cn1cncn1)(Cn1cncn1)c1ccc(F)cc1F` [Fluco, fluconazole], which “biofilm inhibition (XTT)” value [1] is on record?
**A.** The value was “highly resistant”.

**Q.** What about the “biofilm inhibition (XTT)” value [2] of the same compound?
**A.** Its value is “more effective than RTD-1 at concentrations below 50 µg/ml”.

**Q.** What about the survival ([3]; 5 mg/kg i.p. once a day for 7 days, first dose 24 h after infection, 30 d) of the same compound?
**A.** Its survival is “markedly enhanced survival”.

**Q.** And the survival ([3]; single 5 mg/kg dose at T = 0 (RTD-1 i.v., s.c. or i.p.; Fluco, Caspo i.p.), 3 × 10^5 blastospores i.v., 30 days, vs saline)?
**A.** The survival was “effective in enhancing survival”.

**Q.** What about the “survival (log-rank)” value [4] of the same compound?
**A.** The value was “significantly (P < 0.0001) improved survival”.

**Q.** And the MIC ([5]; RPMI 1640, 25 mM MOPS, 2 mM L-glutamine, 1 × 10^3 CFU/well, 30 °C, 48 h, A600, complete inhibition of growth, duplicate)?
**A.** Its MIC is 64 µg/mL (≈ 209 µM).

**Q.** What about the MFC ([5]; RPMI, plating of MIC wells on YPD, ≥99% killing of input inoculum) of the same compound?
**A.** Its MFC is over 256 µg/mL.

**Q.** What about the MIC ([6]; Candida albicans, 43001, 48 h) of the same compound?
**A.** Its MIC is over 256 µg/mL.

**Q.** What about the MFC ([6]; Candida albicans, 43001, RPMI, plating of MIC wells on YPD, ≥99% killing of input inoculum) of the same compound?
**A.** Its MFC is over 256 µg/mL.

**Q.** And the MIC ([7]; Candida albicans, 53264, 48 h)?
**A.** Its MIC is over 256 µg/mL.

**Q.** What about the MFC ([7]; Candida albicans, 53264, RPMI, plating of MIC wells on YPD, ≥99% killing of input inoculum) of the same compound?
**A.** Its MFC is over 256 µg/mL.

**Q.** Which renal fungal burden [8] does the source give for IDR-1018 here?
**A.** Its renal fungal burden is “similarly modest reduction in renal fungal burden”.

**Q.** And the survival [8]?
**A.** The survival was “modestly improved survival up to 8 days p.i”.
